Laboratory results taken from patent US6036957A, “Suppression of T-cell proliferation using peptide fragments of myelin basic protein” (Autoimmune, Inc., priority 1995, dated 2000).

Key:
[1] = tested on: MBP reactive T-cell lines; assay: Reactivity of MBP-reactive T-cell lines to overlapping human MBP peptides (proliferation assay); format: cell-based; conditions: for mean frequency of T-cell lines selectively reactive to the peptide, MS vs controls (FIG. 1): result in words
Method: A rapid T-cell cloning technique was used to examine whether there were immunodominant epitopes on human MBP reactive with Class II MHC phenotypes and the frequency of such reactivity. A total of 15,824 short term T-cell lines were generated from 51 human subjects by culturing peripheral blood mononuclear cells ([…]) with purified MBP (100 μg) followed 3 days later, and then every 3-4 days, by the addition of interleukin-2 (IL-2; from ABI, Columbia, Md.) and 2 units recombinant interleukin-4 (IL-4; Genzyme, Boston, Mass.). On Day 13 of culture, an aliquot from each line was tested for reactivity to MBP using the following proliferation assay: T-cell clones (1×10^5 cells/well) were plated in triplicate and cocultured with appropriate stimuli (i.e. 100 μg whole MBP or 5% IL-2) for 72 hours at 37° C., 90% humidity, 5% CO2, in 96 well flat bottomed microtiter plates (Costar). The cells were pulsed with 2 μCi [^3 H]TdR (2 Ci/mmole, New England Nuclear, Boston, Mass.) for the last 18 hours of culture. APCs were prepared by pulsing human Epstein-Barrvirus transformed human B-cells (the virus being commercially available from ATCC) or L-cells which are mouse cells transfected with human DR2 (L-cells are commercially available from ATCC under accession No. ATCC-CCL1 and can be transfected according to the method of Wilkinson, D. et al, J. Exp. Med., 1988, 167:1442-1458 using DNA encoding DR2 as per Wu, S. et al J. Immunol., 1987, 138:2953). B-cells or L-cells were used at 1×10^6 cells/well in complete media either in the presence or absence of 40 pM MBP or phospholipid protein (PLP) for 2 hours at 37° C., washing twice with 4° C. Hanks (Whittaker), followed by irradiation with 5000 rad. at 4° C. To stimulate T-cells without accessory APCs, 2 μM of MBP, PLP, or the appropriate fragment was added directly to the cells for the duration of the culture: 48 hours, followed by pulsing […] and then harvesting. Ten thousand APC's were used for 100,000 T-cell clones.
T-cell lines shown to be reactive to MBP or PLP were then tested using the same technique for reactivity to overlapping oligopeptide 20-mers encompassing the human MBP sequence as shown in Table 1 above. […]
Of a total of 302 cell lines from patients with MS that could be expanded and confirmed to react with MBP on repeated analysis, 140 (46.4%) reacted with MBP residues 84-102; and approximately 70-80% reacted with either MBP residues 84-102 or 143-168. […] The actual frequency of T-cells derived from the peripheral blood that reacted with each MBP peptide for each individual subject was calculated. […]

actively induced EAE = assay: Suppression of actively induced EAE (immunization with MBP/CFA); format: in vivo, Lewis rats; conditions: FIG. 7, words
[2] = tested on: short term T-cell lines generated from peripheral blood mononuclear cells; assay: Frequency of MBP- and PLP-reactive short term T-cell lines (proliferation assay); format: cell-based, human; conditions: mean +/-SEM
Method: A rapid T-cell cloning technique was used to examine whether there were immunodominant epitopes on human MBP reactive with Class II MHC phenotypes and the frequency of such reactivity. A total of 15,824 short term T-cell lines were generated from 51 human subjects by culturing peripheral blood mononuclear cells ([…]) with purified MBP (100 μg) followed 3 days later, and then every 3-4 days, by the addition of interleukin-2 (IL-2; from ABI, Columbia, Md.) and 2 units recombinant interleukin-4 (IL-4; Genzyme, Boston, Mass.). On Day 13 of culture, an aliquot from each line was tested for reactivity to MBP using the following proliferation assay: T-cell clones (1×10^5 cells/well) were plated in triplicate and cocultured with appropriate stimuli (i.e. 100 μg whole MBP or 5% IL-2) for 72 hours at 37° C., 90% humidity, 5% CO2, in 96 well flat bottomed microtiter plates (Costar). […]
Subjects with other central nervous system diseases had the following diagnoses: 1-3 weeks after either cerebrovascular accident (n=4), brain trauma with CNS hemorrhage (n=4), or metastatic brain tumor (n=2). […] In addition, the frequency of MBP and PLP-reactive lines was calculated separately for each subject by dividing the number of MBP-reactive lines by the total number of lines generated and the mean values +/-SEM are given. […]

FKGVDAQGTLSKIFKLGGRD [143-168, human MBP amino acid residues 143-168]
fraction of MBP reactive T-cell lines that recognized either the 84-102 or the 143-168 peptide ([1]; control groups, 100 lines): about 34%
fraction of MBP-reactive cell lines that reacted with either MBP residues 84-102 or 143-168 ([1]; patients with MS, 302 cell lines): 70-80%
mean frequency of T-cell lines selectively reactive to the peptide, MS vs controls (FIG. 1) [1]: both MS and control subjects showed high frequencies

guinea pig MBP peptide 131-150: Control guinea pig MBP peptide 131-150 (DYKSKGFKGAHDAQGTLSKI; UniProt P25188 131-150, looked up, fragment)
suppression of EAE via IV tolerization (actively induced EAE; administered intravenously prior to immunization): did not suppress
suppression of EAE via oral tolerization (actively induced EAE; administered orally prior to immunization): did not suppress

HHPARTAHYGSLPQKSEGRT [61-82]
mean frequency of T-cell lines selectively reactive to the peptide, MS vs controls (FIG. 1) [1]: Significant but less striking increases in reactivity

B1: PLP: proteolipid protein, myelin autoantigen (protein, UniProt P60201 2-277, looked up)
Myelin proteolipid protein: GLLECCARCLVGAPFASLVATGLCFFGVALFCGCGHEALTGTEKLIETYFSKNYQDYEYLINVIHAFQYVIYGTASFFFLYGALLLAEGFYTTGAVRQIFGDYKTTICGKGLSATVTGGQKGRGSRGQHQAHSLERVCHCLGKWLGHPDKFVGITYALTVVWLLVFACSAVPVYIYFNTWTTCQSIAFPSKTSASIGSLCADARMYGVLPWNAFPGKVCGSNLLSICKTAEFQMTFHLFIAAFVGAAATLVSLLTFMIAATYNFAVLKLMGRGTKF
MEAN FREQUENCY OF Ag REACTIVE LINES ([2]; MS patients (n = 23)): 3.34 ± 1.56
MEAN FREQUENCY OF Ag REACTIVE LINES ([2]; other neurological disease (n=10)): 0.90
